Experiment [1] deals with T1, TrmDSA (Staphylococcus aureus, UniProt Q2FHJ8).
T1 construct: gene trmD; full-length, N-terminal His tag (pET28b), expressed in E. coli BL21(DE3), tag kept
T1 sequence (Q2FHJ8 2-245): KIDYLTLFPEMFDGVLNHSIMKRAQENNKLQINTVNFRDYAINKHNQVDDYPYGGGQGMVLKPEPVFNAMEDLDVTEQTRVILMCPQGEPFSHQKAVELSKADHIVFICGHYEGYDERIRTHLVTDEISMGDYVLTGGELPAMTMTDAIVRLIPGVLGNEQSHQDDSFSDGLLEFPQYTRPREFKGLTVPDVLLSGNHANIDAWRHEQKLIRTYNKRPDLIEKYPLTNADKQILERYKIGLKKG
Briefly: ITC. Format: binding.

The target in experiment [2] is T2, TrmDEC (Escherichia coli, UniProt P0A873).
T2 construct: gene trmD; full-length, N-terminal His tag (pET28b), expressed in E. coli BL21(DE3), tag kept
T2 sequence (P0A873 2-255): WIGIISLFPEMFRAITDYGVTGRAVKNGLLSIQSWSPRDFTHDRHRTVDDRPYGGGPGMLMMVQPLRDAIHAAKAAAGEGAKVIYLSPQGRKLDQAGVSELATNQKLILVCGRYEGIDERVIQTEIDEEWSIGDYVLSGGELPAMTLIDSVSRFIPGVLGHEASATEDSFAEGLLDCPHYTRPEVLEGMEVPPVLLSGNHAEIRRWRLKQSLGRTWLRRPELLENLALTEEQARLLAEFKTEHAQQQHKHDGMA
Kind of experiment: ITC. The class given is binding.

`C[S+](CC[C@H](N)C(=O)O)C[C@H]1O[C@@H](n2cnc3c(N)ncnc32)[C@H](O)[C@@H]1O` (some centres unmarked) [AdoMet]: the Kd in experiment [1] came out at 121 µM; in experiment [2] it was 21.5 µM.

A word on the Kd: it is the free concentration of one partner at which half of the binding sites on the other are occupied at equilibrium, for simple one-to-one binding.

The record behind these values is paper PMC5217690 (The Journal of Biological Chemistry, 2016).
